Test results published in US12029744B2, “Bicyclic heteroaryl derivatives as ectonucleotide pyrophosphatase phosphodiesterase 1 inhibitors” (Riboscience LLC, priority 2019, dated 2024).
Where a name gives a salt, the structure may show the parent alone.

The compounds below were run against T1, ENPP1 (Homo sapiens, UniProt P22413) (assay: Measurement of pNP-TMP hydrolysis by ENPP1 (enzyme activity assay, absorbance at 405 nm)). Conditions: not given.
T1 sequence (P22413 1-925): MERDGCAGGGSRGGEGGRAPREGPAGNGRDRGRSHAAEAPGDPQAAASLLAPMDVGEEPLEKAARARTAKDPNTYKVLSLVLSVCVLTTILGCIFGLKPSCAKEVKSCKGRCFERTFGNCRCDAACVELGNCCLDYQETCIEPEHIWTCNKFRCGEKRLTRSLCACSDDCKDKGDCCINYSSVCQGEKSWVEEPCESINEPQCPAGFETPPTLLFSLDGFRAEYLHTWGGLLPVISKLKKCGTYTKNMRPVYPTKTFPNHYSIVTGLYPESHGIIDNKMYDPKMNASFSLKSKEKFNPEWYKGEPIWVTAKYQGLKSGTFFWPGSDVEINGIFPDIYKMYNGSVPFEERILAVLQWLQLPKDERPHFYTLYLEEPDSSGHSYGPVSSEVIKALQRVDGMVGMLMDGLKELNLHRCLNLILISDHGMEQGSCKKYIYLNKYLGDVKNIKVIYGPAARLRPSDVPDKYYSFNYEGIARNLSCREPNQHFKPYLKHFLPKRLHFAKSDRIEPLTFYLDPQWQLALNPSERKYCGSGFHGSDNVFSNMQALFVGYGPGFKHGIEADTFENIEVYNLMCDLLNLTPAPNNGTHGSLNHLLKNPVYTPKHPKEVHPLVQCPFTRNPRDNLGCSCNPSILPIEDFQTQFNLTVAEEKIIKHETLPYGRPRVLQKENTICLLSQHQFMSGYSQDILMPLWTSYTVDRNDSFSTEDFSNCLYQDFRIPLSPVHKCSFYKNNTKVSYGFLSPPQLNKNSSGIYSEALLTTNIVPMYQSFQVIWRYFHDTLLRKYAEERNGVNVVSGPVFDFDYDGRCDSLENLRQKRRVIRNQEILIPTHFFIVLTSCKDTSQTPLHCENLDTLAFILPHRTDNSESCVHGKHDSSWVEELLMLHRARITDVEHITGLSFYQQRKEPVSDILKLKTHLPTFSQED
Type: biochemical
Description: Measurement of pNP-TMP Hydrolysis by ENPP1
p-Nitrophenyl thymidine 5′-monophosphate (pNP-TMP) is a synthesized substrate for ENPP1. The ENPP1 enzyme activity assay with pNP-TMP substrate was conducted as follows:
Incubation of ENPP1 with compounds was set at 25° C. for 10 min. […] For each compound dilution, wells with assay buffer (50 mM Tris-HCl, pH8.8, 250 mM NaCl, 0.1 mg/ml BSA, 1% DMSO) only but no ENPP1 were included as controls for subtraction of test compound derived absorbance at 405 nm.
Absorbance at 405 nm was recorded immediately in kinetic mode by PerkinElmer 2300 Enspire multimode plate reader.
For each inhibitor, the specific ENPP1 activity was calculated using the following equation: ENPP1 activity (pmol/min/μg)=Adjusted Vmax (OD405 nm/min)×conversion factor (pmol/OD405 nm)/amount of enzyme (μg)
Adjusted Vmax=V0×(Km+(S))/(S).
V0=(OD405 nm with ENPP1−OD405 nm ENPP1 blank)/minutes. OD405 nm was plotted, with blank subtracted, against time (minutes), the initial linear rate is V0. […]
The slope is the conversion factor. The percent ENPP1 activity for each sample was calculated using the following equation: % enzyme activity=sample enzyme activity/MAX Activity×100%.
To determine the IC50 for each compound, compound concentration values and percent enzyme activity values were inserted into GraphPad Prism (GraphPad Prism version 7.0 for Windows, GraphPad Software, La Jolla California USA, www.graphpad.com), and Prism's Transform analysis was used to convert the x-axis values (compound concentration) to logarithms. A sigmoidal variable slope nonlinear regression analysis was performed using the following equation: Y=Bottom+(Top−Bottom)/(1+10^[…])).

`NC(=O)c1ccc2c(ncn2Cc2ccc(P(=O)(O)O)cc2)n1` [Compound 138, 4-((5-carbamoylimidazo[4,5-b]pyridin-1-yl)methyl)phenylphosphonic acid] showed a Ki of under 100 nM.

Same assay, conditions: substrate pNP-TMP 500 μM, KM 232 μM; Ki from IC50 by Cheng-Prusoff; read-out: Ki (pNP-TMP)

`CCc1nc2c(O)nccc2n1Cc1ccc(B(O)O)cc1` [Compound 73, 4-((2-ethyl-4-hydroxyimidazo [4,5-c]pyridin-1-yl)methyl) phenylboronic acid] and `CCc1nc2ccnc(O)c2n1Cc1ccc(B(O)O)cc1` [Compound 74, 4-((2-ethyl-4-hydroxyimidazo[4,5-c]pyridin-3-yl)methyl)phenylboronic acid] cannot be ordered by Ki: under 100 nM for the first, under 1000 nM for the second.

`NC(=O)c1ccc2c(c1)c(Cl)cn2Cc1ccc(P(=O)(O)O)cc1` [Compound 143, 4-((5-carbamoyl-3-chloroindol-1-yl)methyl)phenylphosphonic acid] and `NC(=O)c1ccc2c(c1)ncn2Cc1ccc(P(=O)(O)O)cc1` [Compound 49, 4-((5-carbamoyl-1,3-benzodiazol-1-yl)methyl)phenylphosphonic acid] cannot be ordered by Ki: under 1000 nM for the first, under 1000 nM for the second.

`NC(=O)c1ccc2c(ncn2Cc2ccc(B(O)O)cc2)c1N` [Compound 105, 4-((4-amino-5-carbamoyl-1,3-benzodiazol-1-yl)methyl)phenylboronic acid] and `NC(=O)c1nccc2c1ncn2Cc1ccc(B(O)O)cc1` [Compound 96, 4-((4-carbamoylimidazo[4,5-c]pyridin-1-yl)methyl)phenylboronic acid] cannot be ordered by Ki: under 100 nM for the first, under 10 nM for the second.

`Nc1nc2c(ncn2Cc2ccc(B(O)O)cc2)c(=O)[nH]1` [Compound 5, 4-((2-amino-6-oxo-1H-purin-9-yl)methyl)phenylboronic acid] and `O=c1[nH]cnc2c1ncn2Cc1ccc(B(O)O)cc1` [Compound 3, 4-((6-oxo-1H-purin-9-yl)methyl)phenylboronic acid] cannot be ordered by Ki: under 100 nM for the first, under 1000 nM for the second.

`N#Cc1ccc2c(ncn2Cc2ccc(B(O)O)cc2)n1` [Compound 70, 4-((5-cyanoimidazo[4,5-b]pyridin-1-yl)methyl)phenylboronic acid] and `COc1ccc2c(ncn2Cc2ccc(B(O)O)cc2)n1` [Compound 125, 4-((5-methoxyimidazo[4,5-b]pyridin-1-yl)methyl)phenylboronic acid] cannot be ordered by Ki: under 10 nM for the first, under 10 nM for the second.

`O=c1[nH]cnc2c1c(F)cn2Cc1ccc(P(=O)(O)O)cc1` [Compound 134, 4-((5-fluoro-4-oxo-3H-pyrrolo[2,3-d]pyrimidin-7-yl)methyl)phenylphosphonic acid] and `O=c1[nH]cnc2c1c(F)cn2Cc1ccc(B(O)O)cc1` [Compound 63, (4-((5-fluoro-4-oxo-3,4-dihydro-7H-pyrrolo[2,3-d]pyrimidin-7-yl)methyl)phenyl) boronic acid] cannot be ordered by Ki: under 100 nM for the first, under 100 nM for the second.

`NC(=O)c1ccc2c(cnn2Cc2ccc(B(O)O)cc2)c1` [Compound 34, 4-((5-carbamoylindazol-1-yl)methyl)phenylboronic acid] and `NC(=O)c1ccc2c(cnn2Cc2ccc(P(=O)(O)O)cc2)c1` [Compound 65, 4-((5-carbamoylindazol-1-yl)methyl) phenylphosphonic acid] cannot be ordered by Ki: under 100 nM for the first, under 100 nM for the second.

`NC(=O)c1ccc2c(c1)ncn2Cc1ccc(B(O)O)cc1` [Compound 17, 4-((5-carbamoyl-1,3-benzodiazol-1-yl)methyl)phenylboronic acid trifluoroacetic acid salt] and `COC(=O)c1ccc2c(c1)ncn2Cc1ccc(B(O)O)cc1` [Compound 41, 2,2,2-trifluoroacetic acid--(4-((5-(methoxycarbonyl)-1H-benzo[d]imidazol-1-yl)methyl)phenyl)boronic acid (1/1)] cannot be ordered by Ki: under 10 nM for the first, under 100 nM for the second.

`OB(O)c1ccc(Cn2cnc3c(C(F)F)cccc32)cc1` [Compound 130, 4-((4-(difluoromethyl)-1,3-benzodiazol-1-yl)methyl)phenylboronic acid] and `N#Cc1ccc2c(c1)ncn2Cc1ccc(B(O)O)cc1` [Compound 15, 4-((5-cyano-1,3-benzodiazol-1-yl)methyl)phenylboronic acid] cannot be ordered by Ki: under 1000 nM for the first, under 10 nM for the second.

`O=P(O)(O)c1ccc(Cn2ccc3c(O)nccc32)cc1` [Compound 56, (4-((4-hydroxy-1H-pyrrolo[3,2-c]pyridin-1-yl)methyl)phenyl)phosphonic acid] and `O=P(O)(O)c1ccc(Cn2ncc3c(O)nccc32)cc1` [Compound 64, 4-((4-hydroxypyrazolo[4,3-c]pyridin-1-yl)methyl)phenylphosphonic acid] cannot be ordered by Ki: under 100 nM for the first, under 100 nM for the second.

`Cc1nc2nc(C(N)=O)ccc2n1Cc1ccc(B(O)O)cc1` [Compound 144, (4-((5-carbamoyl-2-methyl-1H-imidazo[4,5-b]pyridin-1-yl)methyl)phenyl)boronic acid] and `CC(C)c1nc2nc(C(N)=O)ccc2n1Cc1ccc(B(O)O)cc1` [Compound 146, 4-((5-carbamoyl-2-isopropylimidazo[4,5-b]pyridin-1-yl)methyl)phenylboronic acid] cannot be ordered by Ki: under 10 nM for the first, under 10 nM for the second.

`COc1cc2c(cc1C(N)=O)ncn2Cc1ccc(B(O)O)cc1` [Compound 32, 4-((5-carbamoyl-6-methoxy-1,3-benzodiazol-1-yl)methyl)phenylboronic acid] and `COc1cc2ncn(Cc3ccc(B(O)O)cc3)c2cc1OC` [Compound 1, 4-((5,6-dimethoxy-1,3-benzodiazol-1-yl)methyl)phenylboronic acid] cannot be ordered by Ki: under 100 nM for the first, under 100 nM for the second.

`Cc1nc2cc(C(N)=O)ccc2n1Cc1ccc(B(O)O)cc1` [Compound 36, (4-((5-carbamoyl-2-methyl-1H-benzo[d]imidazol-1-yl)methyl)phenyl)boronic acid] and `CC(C)c1nc2cc(C(N)=O)ccc2n1Cc1ccc(B(O)O)cc1` [Compound 37, 4-((5-carbamoyl-2-isopropyl-1,3-benzodiazol-1-yl)methyl)phenylboronic acid] cannot be ordered by Ki: under 10 nM for the first, under 10 nM for the second.

`Cc1nc2cc(C(N)=O)ccc2n1Cc1ccc(P(=O)(O)O)cc1` [Compound 136, 4-((5-carbamoyl-2-methyl-1,3-benzodiazol-1-yl)methyl)phenylphosphonic acid] and `Cc1cc2nc(C(N)=O)ccc2n1Cc1ccc(B(O)O)cc1` [Compound 77, 4-((5-carbamoyl-2-methylpyrrolo[3,2-b]pyridin-1-yl)methyl) phenylboronic acid] cannot be ordered by Ki: under 100 nM for the first, under 10 nM for the second.

`CC(C)c1nc2c(O)nccc2n1Cc1ccc(B(O)O)cc1` [Compound 75, 4-((4-hydroxy-2-isopropylimidazo[4,5-c]pyridin-1-yl)methyl) phenylboronic acid] and `CCc1cc2c(O)nccc2n1Cc1ccc(B(O)O)cc1` [Compound 106, 4-((2-ethyl-4-hydroxypyrrolo[3,2-c]pyridin-1-yl)methyl)phenylboronic acid] cannot be ordered by Ki: under 100 nM for the first, under 10 nM for the second.

`N#Cc1ccc2c(c1)ncn2Cc1ccc(P(=O)(O)O)cc1` [Compound 24, (4-((5-cyano-1H-benzo[d]imidazol-1-yl)methyl)phenyl)phosphonic acid] and `O=P(O)(O)c1ccc(Cn2cnc3nc(O)ccc32)cc1` [Compound 150, 4-((5-hydroxyimidazo[4,5-b]pyridin-1-yl)methyl)phenylphosphonic acid] cannot be ordered by Ki: under 1000 nM for the first, under 100 nM for the second.

`NC(=O)c1ccc2c(ncn2Cc2ccc(B(O)O)cc2)n1` [Compound 59, 4-((5-carbamoylimidazo[4,5-b]pyridin-1-yl)methyl)phenylboronic acid] and `OB(O)c1ccc(Cn2ccc3c(O)nccc32)cc1` [Compound 9, (4-((4-hydroxy-1H-pyrrolo[3,2-c]pyridin-1-yl)methyl)phenyl)boronic acid] cannot be ordered by Ki: under 10 nM for the first, under 10 nM for the second.

In the case of `COc1nccc2c1cnn2Cc1ccc(B(O)O)cc1` [Compound 98, 4-((4-methoxypyrazolo [4,3-c]pyridin-1-yl)methyl) phenylboronic acid], the Ki is reported as under 1000 nM.
